Reference: patent US11952610B2, “Digital microbiology” (priority 2016, dated 2024)
In brackets after ≈: the same amount, converted by molar mass. Entries after “also recorded” stand apart in the source; their conditions may differ. Read-outs that look alike come from different tables or passages of the source.

Experiments:
[1] = test system: Escherichia coli (ATCC®25922™); assay: Antimicrobial susceptibility testing in water-in-oil droplets, microscope reading; type: cell-based; conditions: for MIC: Escherichia coli, read-out: Observed MIC
Protocol: (§1) (at 30° C. for the C. albicans).

[2] = test system: E. coli ATCC®25922; conditions: cited from earlier work
[3] = test system: C. albicans ATCC®24433™; assay: Antifungal susceptibility testing in water-in-oil droplets, microscope reading; type: cell-based, Candida albicans
Protocol: as §1

[4] = test system: C. albicans ATCC®24433™; conditions: cited from earlier work
[5] = test system: Penicillium hirsutum ATCC 16025; assay: Inhibition of mold growth outside the droplet aqueous phase, antifungal in oil phase; type: cell-based; conditions: 0.5 mg/L in the oil phase, 48 hours
[6] = droplets at 37° C., read after 4 and/or 6 h

Compound: Gentamycin
- Growth in % of droplets ([1]; 0.125 mg/L, reading time 4 h): ~50% of the droplets
- Growth in % of droplets ([1]; 0.25 mg/L, reading time 4 h): 30-50% of droplets
- Growth in % of droplets ([1]; 0.5 mg/L, reading time 4 h): ~30% of droplets
- Growth in % of droplets ([1]; 0.5 mg/L, reading time 6 h): 30-50% of droplets
- Growth in droplets (observation in words) ([1]; 2 mg/L, reading time 4 h): No growth
- Growth in droplets (observation in words) ([1]; 2 mg/L, reading time 6 h): No growth
- Observed MIC [1, 6]: 2 mg/L
- Expected MIC (CLSI) [2]: 0.25 to 1 mg/L

Compound: OC(Cn1cncn1)(Cn1cncn1)c1ccc(F)cc1F [Fluconazole]
- Growth in % of droplets ([3]; 1 mg/L, reading time 6 h): Growth in 15-20%
- Growth in % of droplets ([3]; 2 mg/L, reading time 4 h): Growth in 15-20%
- Growth in % of droplets ([3]; 2 mg/L, reading time 6 h): Growth in 15-20%
- Growth in % of droplets ([3]; 4 mg/L, reading time 4 h): ~15% of droplets
- Growth in % of droplets ([3]; 4 mg/L, reading time 6 h): Growth in 15-20%
- Growth in droplets (observation in words) ([3]; 8 mg/L, reading time 4 h): Limited growth
- Growth in droplets (observation in words) ([3]; 8 mg/L, reading time 6 h): Limited growth
- Growth in droplets (observation in words) ([3]; 16 mg/L, reading time 4 h): Limited growth
- Growth in droplets (observation in words) ([3]; 16 mg/L, reading time 6 h): Limited growth
- Growth in droplets (observation in words) ([3]; 32 mg/L, reading time 4 h): Limited growth
- Growth in droplets (observation in words) ([3]; 32 mg/L, reading time 6 h): Limited growth
- Growth in droplets (observation in words) ([3]; 64 mg/L, reading time 4 h): Limited growth
- Growth in droplets (observation in words) ([3]; 64 mg/L, reading time 6 h): Limited growth
- Expected MIC (CLSI) [4]: 0.25 to 1 mg/L

Compound: Colistin
- Growth in % of droplets ([1]; 0.125 mg/L, reading time 4 h): Growth in 10-20% of
- Growth in droplets (observation in words) ([1]; 0.25 mg/L, reading time 4 h): Limited growth in few
- Growth in % of droplets ([1]; 0.25 mg/L, reading time 6 h): Growth in 20-30% of
- Growth in droplets (observation in words) ([1]; 0.5 mg/L, reading time 4 h): Growth in 1 droplet
- Growth in droplets (observation in words) ([1]; 1 mg/L, reading time 6 h): No growth
- Observed MIC [1, 6]: 1 mg/L
- Expected MIC (CLSI) [2]: 0.5 to 2 mg/L

Compound: CN(C)[C@@H]1C(O)=C(C(N)=O)C(=O)[C@@]2(O)C(O)=C3C(=O)c4c(O)cccc4[C@@](C)(O)[C@H]3C[C@@H]12 [Tetracycline]
- Growth in % of droplets ([1]; 0.25 mg/L, reading time 6 h): Growth in 20-30% of
- MIC ([1]; ATCC25922, droplets at 37° C., read after 4 and/or 6 h): 0.5 µg/mL (≈ 1.13 µM)

Compound: CCn1cc(C(=O)O)c(=O)c2ccc(C)nc21 [Nalidixic acid]
- Growth in % of droplets ([1]; 1 mg/L, reading time 6 h): Growth in about 50% of
- Growth in droplets (observation in words) ([1]; 2 mg/L, reading time 6 h): One or few small
- Growth in droplets (observation in words) ([1]; 4 mg/L, reading time 4 h): One or few small
- Growth in droplets (observation in words) ([1]; 4 mg/L, reading time 6 h): No growth
- MIC ([1]; ATCC25922, 6 h): 4 µg/mL (≈ 17.2 µM)
- Expected MIC (CLSI) [2]: 1 to 4 mg/L

Compound: C=CCOC(Cn1ccnc1)c1ccc(Cl)cc1Cl (racemic) [Imazalil, (RS)-1-[2-(allyloxy)-2-(2,4-dichlorophenyl)ethyl]-1H-imidazole]
- Mold growth outside the aqueous phase [5]: the hyphae spreading was inhibited and mold growth was confined within the droplet; also recorded: inhibition of mold growth outside the aqueous phase

Compound: C[C@@H]1[C@H](O)[C@@H](C)/C=C/C=C/C=C/C=C/C=C/C=C/C=C/[C@H](O[C@@H]2O[C@H](C)[C@@H](O)[C@H](N)[C@@H]2O)C[C@@H]2O[C@](O)(C[C@@H](O)C[C@@H](O)[C@H](O)CC[C@@H](O)C[C@@H](O)CC(=O)O[C@H]1C)C[C@H](O)[C@H]2C(=O)O [Amphotericin B]
- Growth in % of droplets ([3]; 0.125 mg/L, reading time 4 h): 15-20% of
- Growth in % of droplets ([3]; 0.25 mg/L, reading time 4 h): 15-20% of
- Growth in % of droplets ([3]; 0.25 mg/L, reading time 6 h): 30-40% of the
- Growth in droplets (observation in words) ([3]; 0.25 mg/L, reading time 24 h): Full growth
- Growth in % of droplets ([3]; 0.5 mg/L, reading time 4 h): 15-20% of
- Growth in % of droplets ([3]; 0.5 mg/L, reading time 6 h): ~30% of
- Growth in % of droplets ([3]; 0.5 mg/L, reading time 24 h): ~20% of
- Growth in droplets (observation in words) ([3]; 1 mg/L, reading time 4 h): Limited
- Growth in droplets (observation in words) ([3]; 1 mg/L, reading time 6 h): Limited
- Growth in droplets (observation in words) ([3]; 1 mg/L, reading time 24 h): Limited
- Growth in droplets (observation in words) ([3]; 2 mg/L, reading time 6 h): Limited
- Growth in droplets (observation in words) ([3]; 2 mg/L, reading time 24 h): Limited
- Growth in droplets (observation in words) ([3]; 8 mg/L, reading time 24 h): 1-2 cells
- Observed MIC ([3]; droplets at 30° C., read after 4, 6 (24) h): 2 to 4 mg/L
- Expected MIC (CLSI) [4]: 0.25 to 1 mg/L
